Test results: patent US4355026A, “4-Demethoxy,11-deoxy anthracycline derivatives” (priority 1980, dated 1982)
Values after ≈ are worked out from the molar mass of the structure shown. Where two headings read alike, the source gives them in different places.

Tests used:
L1210 leukemia cells [1] = assay: Inhibitory effect on growth of L1210 cultivated leukemic cells of mice; format: cell-based; conditions: Mus musculus, RPMI 1640, 20% calf serum, 37° C.
Procedure: (§1) A. Inhibitory Effect on Growth, DNA Synthesis and RNA Synthesis of L1210 Cultivated Leukemic Cells of Mice
For example, L1210 cells were inoculated in a concentration of 5×10^4 cells/ml in an RPMI 1640 culture medium (Roswell Park Memorial Institute 1640) containing 20% calf serum and, simultaneously, representative compounds of the present invention were added in a concentration of 0.1 and 0.5 μg/ml. The cells were cultivated in a CO2 generator at 37° C. The 50% growth inhibitory concentration with respect to a control group was then determined.

[2] = tested on: L1210 leukemia cells, DNA synthesis; assay: Inhibition of DNA synthesis (14C-thymidine incorporation) of L1210 cultivated leukemic cells; format: cell-based; conditions: Mus musculus, L1210, 1 h, 14C-thymidine, 60 minutes, 37° C.
Procedure: as §1
(§2) Separately, the above L1210 cultivated cells were suspended in a concentration of 5×10^5 cells/ml in an RPMI 1640 medium containing 10% calf serum and cultivated for 1 to 2 hours in a CO2 incubator at 37° C. Then, representative test compounds were added in various concentrations, and 15 minutes later, ^14 C-uridine (0.05 μCi/ml) or ^14 C-thymidine (0.05 μCi/ml) were added. The cells were incubated at 37° C. for 60 minutes. A 10% aqueous trichloroacetic acid solution was added to the incubation medium to stop the reaction and simultaneously precipitate acid-insoluble matter. The acid-insoluble matter was washed three times with a 5 to 10% aqueous solution of trichloroacetic acid and then dissolved in formic acid. The radioactivity of the acid-insoluble matter was measured. From the ratio of incorporated radiation to that of a control group, the concentrations which inhibited radiation by 10%, 50% and 90% respectively were measured.

[3] = tested on: L1210 leukemia cells, RNA synthesis; assay: Inhibition of RNA synthesis (14C-uridine incorporation) of L1210 cultivated leukemic cells; format: cell-based; conditions: Mus musculus, L1210, 1 h, 14C-uridine, 60 minutes, 37° C.
Procedure: as §1, §2

L1210 leukemia cells [4] = assay: Antitumor activity on CDFI mouse leukemia induced by mouse L1210 leukemia cells; format: in vivo, CDFI mice; conditions: intraperitoneal, 10 consecutive days
Procedure: B. Antitumor Activity on CDFI Mouse Leukemia Induced by Mouse L1210 Leukemia cells
L1210 leukemia cells of mice were intraperitoneally transplanted in an amount of 1×10^5 cells/mouse in CDFI mice. Starting 24 hours after the transplantation, each of the test compounds was intraperitoneally administered to the mice for 10 consecutive days. the survival rate (T/C, %) was calculated in comparison with a control group (to which physiological saline was administered).

[5] = tested on: Bacillus cereus ATCC 10702; assay: MIC on nutrient agar medium; format: cell-based; conditions: ATCC10702
Description: (§3) The compounds of formula I provided by the present invention are also characterized by their antimicrobial activity. Table 3 summarizes the minimum inhibitory concentrations (MIC) of representative compounds of the present invention against various microorganisms on a nutrient agar medium.

Bacillus megatherium APF = assay: MIC on nutrient agar medium; format: cell-based
Description: as §3

[6] = tested on: Bacillus subtilis NRRB- 558; assay: MIC on nutrient agar medium; format: cell-based; conditions: NRRB558
Description: as §3

[7] = tested on: Bacillus subtilis PCI 219; assay: MIC on nutrient agar medium; format: cell-based; conditions: PCI219
Description: as §3

Candida albicans 3147 = assay: MIC on nutrient agar medium; format: cell-based
Description: as §3

[8] = tested on: Corynebacterium bovis 1810; assay: MIC on nutrient agar medium; format: cell-based
Description: as §3

Escherichia coli NIHJ = assay: MIC on nutrient agar medium; format: cell-based
Description: as §3

[9] = tested on: Klebsiella pneumonia PCI 602; assay: MIC on nutrient agar medium; format: cell-based; conditions: Klebsiella pneumoniae, PCI602
Description: as §3

Microccus flavus FDA 16 = assay: MIC on nutrient agar medium; format: cell-based
Description: as §3

[10] = tested on: Microccus lysodeikticus IFQ 3333; assay: MIC on nutrient agar medium; format: cell-based
Description: as §3

[11] = tested on: Mycobacterium smegmatis ATCC 607; assay: MIC on nutrient agar medium; format: cell-based; conditions: Mycolicibacterium smegmatis, ATCC607
Description: as §3

[12] = tested on: Pseudomonas aeruginosa A3; assay: MIC on nutrient agar medium; format: cell-based
Description: as §3

Salmonella typhi T - 63 = assay: MIC on nutrient agar medium; format: cell-based; conditions: Salmonella enterica
Description: as §3

Sarcina lutea PCI 1001 = assay: MIC on nutrient agar medium; format: cell-based; conditions: Micrococcus luteus, PCI1001
Description: as §3

[13] = tested on: Shigella flexneri 46 JS 11811; assay: MIC on nutrient agar medium; format: cell-based; conditions: 46JS11811
Description: as §3

[14] = tested on: Staphylococcus aureus FDA 209; assay: MIC on nutrient agar medium; format: cell-based; conditions: FDA209
Description: as §3

[15] = tested on: Staphylococcus aureus smith; assay: MIC on nutrient agar medium; format: cell-based
Description: as §3

CC(=O)[C@]1(O)Cc2cc3c(c(O)c2[C@@H](O[C@H]2C[C@H](N)[C@H](O)[C@H](C)O2)C1)C(=O)c1ccccc1C3=O (single isomer, unassigned; isomer 4) [4-Demethoxy-11-deoxy-daunomycin (7S,9S,1'α)isomer, 4-Demethoxy-11-deoxydaunomycin]
IC50 (L1210 leukemia cells [1]; L1210, 24 h, 1 day later, read-out: IC50 growth, 1 day later): 0.09 µg/mL (≈ 0.187 µM) | IC50 (L1210 leukemia cells [1]; L1210, 48 h, 2 days later, read-out: IC50 growth, 2 days later): 0.01 µg/mL (≈ 0.0208 µM) | IC50 ([2]; read-out: IC50 DNA synthesis): 0.22 µg/mL (≈ 0.457 µM) | IC90 ([2]; 90% inhibition, read-out: IC90 DNA synthesis): 2.5 µg/mL (≈ 5.19 µM) | IC50 ([3]; read-out: IC50 RNA synthesis): 0.34 µg/mL (≈ 0.706 µM) | IC90 ([3]; 90% inhibition, read-out: IC90 RNA synthesis): 2.5 µg/mL (≈ 5.19 µM) | Survival rate (T/C, %) (L1210 leukemia cells [4]; 0.15 mg/kg/day): 103% | Survival rate (T/C, %) (L1210 leukemia cells [4]; 0.3 mg/kg/day): 115% | Survival rate (T/C, %) (L1210 leukemia cells [4]; 0.6 mg/kg/day): 115% | Survival rate (T/C, %) (L1210 leukemia cells [4]; 1.25 mg/kg/day): 135% | Survival rate (T/C, %) (L1210 leukemia cells [4]; 2.5 mg/kg/day): 160% | MIC [5]: 12.5 µg/mL (≈ 26 µM) | MIC (Bacillus megatherium APF): 6.25 µg/mL (≈ 13 µM) | MIC [6]: 6.25 µg/mL (≈ 13 µM) | MIC [7]: 3.12 µg/mL (≈ 6.48 µM) | MIC (Candida albicans 3147): 100 µg/mL (≈ 208 µM) | MIC [8]: 6.25 µg/mL (≈ 13 µM) | MIC (Escherichia coli NIHJ): > 100 µg/mL | MIC [9]: 100 µg/mL (≈ 208 µM) | MIC (Microccus flavus FDA 16): 6.25 µg/mL (≈ 13 µM) | MIC [10]: 12.5 µg/mL (≈ 26 µM) | MIC [11]: 12.5 µg/mL (≈ 26 µM) | MIC [12]: > 100 µg/mL | MIC (Salmonella typhi T - 63): > 100 µg/mL | MIC (Sarcina lutea PCI 1001): 6.25 µg/mL (≈ 13 µM) | MIC [13]: 100 µg/mL (≈ 208 µM) | MIC [14]: 25 µg/mL (≈ 51.9 µM) | MIC [15]: 12.5 µg/mL (≈ 26 µM)
